Measured values: the NIST ThermoML archive (doi:10.1021/acs.jced.6b00158)
± gives the expanded uncertainty stated by the source.

What was measured:
[1] = 100 kPa, Liquid; for viscosity: Falling or rolling sphere viscometry; for mass density: Vibrating tube method
[2] = xn = mol fraction of the nth substance listed; details: 100 kPa, Liquid, x1 = 1; for viscosity: Falling or rolling sphere viscometry; for mass density: Vibrating tube method

viscosity ([1]; 293.15 K) [mPa·s] | mass density ([1]; 293.15 K) [kg/m3] | viscosity ([1]; 298.15 K) [mPa·s] | mass density ([1]; 298.15 K) [kg/m3] | viscosity ([1]; 303.15 K) [mPa·s] | mass density ([1]; 303.15 K) [kg/m3] | viscosity ([1]; 308.15 K) [mPa·s] | mass density ([1]; 308.15 K) [kg/m3] | viscosity ([1]; 313.15 K) [mPa·s] | mass density ([1]; 313.15 K) [kg/m3] | viscosity ([2]; 293.15 K) [mPa·s] | mass density ([2]; 293.15 K) [kg/m3] | viscosity ([2]; 298.15 K) [mPa·s] | mass density ([2]; 298.15 K) [kg/m3] | viscosity ([2]; 303.15 K) [mPa·s] | mass density ([2]; 303.15 K) [kg/m3] | viscosity ([2]; 308.15 K) [mPa·s] | mass density ([2]; 308.15 K) [kg/m3] | viscosity ([2]; 313.15 K) [mPa·s] | mass density ([2]; 313.15 K) [kg/m3] | SMILES
4.023 ± 0.069 | 801.96 ± 2 | 3.404 ± 0.067 | 798.12 ± 2 | 2.882 ± 0.065 | 794.22 ± 2 | 2.475 ± 0.064 | 790.27 ± 2 | 2.097 ± 0.063 | 786.27 ± 2 |  |  |  |  |  |  |  |  |  |  | CC(C)CO [2-methyl-1-propanol]
 |  |  |  |  |  |  |  |  |  | 4.023 ± 0.069 | 801.96 ± 2 | 3.404 ± 0.067 | 798.12 ± 2 | 2.882 ± 0.065 | 794.22 ± 2 | 2.475 ± 0.064 | 790.27 ± 2 | 2.097 ± 0.063 | 786.27 ± 2 | CC(C)CO [2-methyl-1-propanol] + NC1CCCCC1
2.134 ± 0.063 | 866.85 ± 2 | 1.944 ± 0.062 | 862.31 ± 2 | 1.786 ± 0.062 | 857.79 ± 2 | 1.572 ± 0.062 | 853.24 ± 2 | 1.417 ± 0.061 | 848.71 ± 2 |  |  |  |  |  |  |  |  |  |  | NC1CCCCC1 [cyclohexylamine]
